System: Methicillin Resistant Staphylococcus aureus (MRSA), Escherichia coli and/or Candida albicans
Test: Minimal inhibitory concentration (MIC) assay, microdilution
Assay type: cell-based
Details: MIC not more than 1 dilution from the reference peptide (Pep001 or MD012) counts as equal activity
Text: To compare antimicrobial activity of the mutants, the inventors made use of the minimal inhibitory concentration (MIC) assay, extensively described in the literature and which has become a world wide standardized test for, e.g., determining susceptibility of strains towards antibiotics (reference “National Committee for Clinical Laboratory Standards: Performance standards for antimicrobial susceptibility testing; fourteenth informational supplement. M100-S14, Volume 24, Wayne, Pa.; 2004.”). The MIC assay is a fast, reliable assay that is used throughout the world in medical microbiology divisions to test e.g., antibiotic response of clinical isolates to monitor antibiotic therapy. MIC values represent the lowest concentration of antibiotic or antifungal that inhibits >90% of growth of the micro-organism. In hospitals MIC values are also used to determine strength of antibiotic therapy where one of the pharmacokinetic parameters is expressed as “hours over MIC”. The inventors therefore feel that MIC values, in contrast to e.g., killing assays, more closely relate to clinical efficacy of the drug and predict more correctly the success of a drug in the clinic.
Antimicrobial properties of the different peptides against a gram negative bacteria (Escherichia coli ATCC 035), a gram positive bacteria (Methicillin Resistant Staphylococcus aureus (MRSA) ATCC 2141) both obtained from the American Type Culture Collection (ATCC, Manassas (VA), USA) and Yeast (Candia Albicans Y01-19; clinical isolate of LUMC, Leiden, the Netherlands) were used for the MIC determination.
Minimal inhibitory concentrations (MICs) were determined by microdilution method according to CLSI guidelines using RPMI1640 medium diluted 1:4 in […] sterile filtered MilliQ and an bacterial inoculum of 5×10^5 CFU/ml. Plates were read after 20-24 h incubation at 35° C. in ambient air. MICs were recorded as the lowest concentration that inhibited visible growth.
Both tables show the MIC values of the various peptides for Methicillin Resistant Staphylococcus aureus (MRSA), Escherichia coli and/or Candida albicans. […]

Row | Substance | antimicrobial activity (MIC) compared with the reference peptide
1 | RRRRQWC [RRRRQWC (SEQ ID NO:141)] | acceptable antimicrobial activity
2 | RRRRSWC [RRRRSWC (SEQ ID NO:142)] | acceptable antimicrobial activity
3 | RRRRSVC [RRRRSVC (SEQ ID NO:143)] | acceptable antimicrobial activity
